Data on 1 molecule can be found in patent US20150025031A1, “METABOLIC DOWNREGULATION FOR CELL SURVIVAL” (WAKE FOREST UNIVERSITY HEALTH SCIENCES, priority 2012, published 2015).

For data set [1], the target named is T1, adenosine deaminase (ADA) (Homo sapiens, UniProt P00813).
T1 construct: purchased Sigma
T1 sequence (P00813 1-363): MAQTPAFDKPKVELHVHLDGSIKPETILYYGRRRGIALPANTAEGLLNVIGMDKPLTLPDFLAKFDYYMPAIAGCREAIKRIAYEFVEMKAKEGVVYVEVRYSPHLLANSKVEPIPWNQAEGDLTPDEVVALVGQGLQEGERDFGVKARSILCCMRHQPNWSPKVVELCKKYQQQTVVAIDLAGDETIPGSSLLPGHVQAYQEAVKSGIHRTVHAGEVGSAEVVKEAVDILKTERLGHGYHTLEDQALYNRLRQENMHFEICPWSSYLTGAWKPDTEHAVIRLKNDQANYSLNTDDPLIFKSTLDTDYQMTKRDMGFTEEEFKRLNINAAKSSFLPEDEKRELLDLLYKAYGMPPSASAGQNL
The data set can be described thus: Cell viability with adenosine derivatives in presence or absence of ADA, normoxic conditions (Example 2). In kind it is cell-based. The settings on record: for conversion by ADA / stability towards adenosine degrading enzymes: presence of ADA. How it is done: Three known ADA inhibitors were examined to evaluate the efficacies of adenosine derivatives: cladribine, pentostatin, and fludarabine phosphate. They have similar structures and molecular weights compared to adenosine, but different functional groups in the structures. Metabolic rate of cells were indirectly analyzed by cell viability in the presence or absence of adenosine derivatives and ADA in various doses. Cell viability with the drugs was evaluated under normoxic conditions.
Adenosine (Sigma-Aldrich), cladribine (Sigma, 2-Chloro-2′-deoxyadenosine), pentostatin (Tocris biosciences), and fludarabine phosphate (LGM Pharma) were used throughout this study.

For another data set, the system named is ischemic skin flap. The data set can be described thus: Ischemic skin flap model. In kind it is in vivo, nude mice. The settings on record: 100 mM in 2% agarose gel, vs control. As to the method: Skin flap model: The u-shaped skin flaps were created on the back of the nude mice, then silicone sheet with 100 mM CDA-containing 2% agarose gel on top of it was placed subcutaneously between muscle and skin layer (FIGS. 9A-9B). Control group received only the materials without CDA incorporated (n=3 per each group). At day 3, the flap necrosis was photographed, and H&E sections were prepared and microscopically examined.
The u-shaped skin flaps were created on the back of the nude mice, then silicone sheet with 100 mM CDA-containing 2% agarose gel (A9045, Sigma) on top of it was placed subcutaneously between muscle and skin layer (FIG. 29A). Control group received only the materials without CDA incorporated (n=3). At day 3, the flap necrosis was photographed, and H&E sections were microscopically examined.

The test system of data set [2] is tibialis anterior (TA) muscle. The data set can be described thus: Compartment syndrome (compression injury) model, tibialis anterior muscle function. The data set is classed as in vivo, Sprague Dawley rats. Particulars: for recovery in muscle function vs control group / percent recovery of muscle function: tetanic outcome at 100 Hz. As to the method:
Compartment syndrome model: Neonatal blood pressure cuffs were placed on the hind limbs of Sprague Dawley rats. A pressure of 130-140 mmHg was held for 3 hrs to induce compartment syndrome in the tibialis anterior (TA) muscle. The experimental group received 50 mM CDA in 300 uL saline daily up to day 2 after injury whereas the control group only received an equal volume of saline (n=6 per each group). The measurement of muscle tetanic force was used to assess in vivo muscle function at before injury and day 3 & 7.
All animal studies were performed in strict compliance with Wake Forest University IACUC and NIH guidelines. Male Lewis rats (6-8 weeks old, Harlan) were anesthetized with 2-3% isofluorane prior to all procedures. A #2 sized neonatal blood pressure cuff (Trimline Medical Products Tempa-Kuff) was tightened around the hind limb proximal to the extensor digitorum longus (EDL) muscle. The time and amount of pressure used varied as indicated. Due to the extended length of anesthesia, rats were administered IP injections of saline over the course of the procedure. Rats were euthanized at 1, 2, 4, 7, 14 or 35d post injury. At least 3 separate experiments were analyzed.
Neonatal blood pressure cuffs were placed on the hind limbs of Sprague Dawley rats. A pressure of 130-140 mmHg was held for 3 hours to induce compartment syndrome in the tibialis anterior (TA) muscle. The experimental group received injection of 30 mM cladribine in 200 μL saline daily up to day 2 after injury whereas the control group only received an equal volume of saline (n=6). The measurement of muscle tetanic force was used to assess in vivo muscle function at before and right after injury, day 3, 7, 11 and 14.
Contractile function (i.e., torque-frequency relationship) of the left anterior crural muscles was measured in vivo using similar methodology as previously described for mice (Kalka et al., 2000, Proc Natl Acad Sci USA 97:3422-3427; Boutilier, 2001, J Exp Biol 204:3171-3181) After rats were anesthetized (2-2.5% isoflurane), the left hindlimb was aseptically prepared. The rat was then placed on a heated platform. The left knee was clamped and the left foot was secured to a custom-made foot plate that is attached to the shaft of an Aurora Scientific 305C-LR-FP servomotor, which in turn was controlled using a PC. Sterilized percutaneous needle electrodes were inserted through the skin for stimulation of the left common peroneal nerve. Electrical stimulus was applied using a Grass S88 stimulator with a constant current SIU (Grass Model PSIU6). Stimulation voltage and needle electrode placement were optimized first with a series of twitch contractions at 1 hz and then with 5 to 10 isometric contractions (400 ms train of 0.05-0.1 ms pulses at 100 Hz). Contractile function of the anterior crural muscles was assessed by measuring maximal isometric torque as a function of stimulation frequency (1-200 Hz). For real-time analysis of torque and length changes, voltage outputs were sampled at 4000 Hz, converted to a digital signal using an A/D board (National Instruments PCI 6221) and recorded using a PC loaded with a custom-made Labview®-based program (provided by the U.S. Army Institute of Surgical Research).

Data set [3] concerns Rat tibialis anterior (TA) muscle tissues. The experiment in a line: In vitro ischemic tibialis anterior muscle tissue survival (H&E, TUNEL). The data set is classed as cell-based, Sprague Dawley rats. The settings on record: 5 mM injected, 3 days incubation. As to the method:
Rat tibialis anterior (TA) muscle tissues were dissected immediately after sacrifice of Sprague Dawley rats (17 weeks old, 380-400 g, Harlan), injected with blank, 5 mM of adenosine or cladribine, and then incubated in 5 mL of complete media for 3 days.
The tissue samples were fixed in 10% neutral buffered formalin (Sigma-Aldrich), 6 μm sections were generated by a cryotome (Leica), and stained with hematoxyline and eosin (H&E) and with TUNEL staining. Microscopic analyses were performed using a light microscope (Zeiss M1) and ImagePro software.

In data set [4] the test system is C2C12 mouse myoblasts. Particulars: 5 mM, regardless of the presence of ADA.
In data set [5] the test system is C2C12 mouse myoblasts.

Structures are written as SMILES. “Also recorded” adds a separate entry of the source.

Turning to `Nc1nc(Cl)nc2c1ncn2[C@H]1C[C@H](O)[C@@H](CO)O1` [cladribine, 2-Chloro-2′-deoxyadenosine], the “recovery of metabolic state after drug removal” value in data set [1] (drugs removed on day 5) is recorded as “recovered their normal metabolic state once the drugs were removed”. For the same molecule, the “depression of cell metabolic rate (cell viability) in presence of ADA” value in data set [1] (normoxic conditions, with or without ADA, various doses) was “best able to inhibit ADA and depress the cells' metabolic rate; also recorded: maintained the cells in hypometabolic steady state the longest”. Further, the “conversion by ADA / stability towards adenosine degrading enzymes” value is listed as “bypassed the conversion by ADA” in data set [1] and “more stable than adenosine in the presence of adenosine degrading enzymes” in data set [1] (listed as CDA). For the same molecule, in the data set on ischemic skin flap (3 days), the “histological examination of skin flap (H&E)” value is “better preservation of general tissue architecture, thickness of the skin and epidermis height”. For the same molecule, the “distal flap necrosis (skin discoloration)” value with ischemic skin flap (subcutaneous, day 3 post-operation) is “clearly reduced”. Also, the “TA muscle twitch isometric torque” value in data set [2] (30 mM in 200 μL saline daily up to day 2, 7 days after injury) is “significantly increased”. In addition, the “recovery in muscle function vs control group” value is “significant acceleration of recovery in muscle function” in data set [2] (30 mM in 200 μL saline daily up to day 2) and “significant increase in percent recovery up to day 11” in data set [2] (30 mM in 200 μL saline daily up to day 2, listed as CDA). In addition, the “newly forming vessels (H&E, immunostaining)” value in data set [2] (30 mM in 200 μL saline daily up to day 2, vs saline group) is “more newly forming vessels”. Moreover, the “anterior crural muscle twitch isometric torque” value in data set [2] (50 mM in 300 uL saline daily up to day 2, 7 days after injury) is given as “significantly increased”. Moreover, the “percent recovery of muscle function” value is reported as roughly 10% in data set [2] (day 3, 50 mM in 300 uL saline daily up to day 2) and roughly 35% in data set [2] (day 7, 50 mM in 300 uL saline daily up to day 2). Moreover, the “muscle structure (H&E)” value in data set [3] is “most preserved muscle structure”. Besides, in data set [3], the “number of live nuclei (TUNEL)” value is “increased number of live nuclei”. Further, the area of fiber result in data set [3] (vs control and adenosine) is “significantly increased area of fiber”. Further, in the data set on C2C12 mouse myoblasts [4] (7 days hypoxia), the “cell population under hypoxic condition” value is “maintained minimal population with significant difference when compared to control”. For the same molecule, the “proliferation after drug and hypoxia removed” value with C2C12 mouse myoblasts [4] is reported as “regained their proliferation capability”. Also, the “metabolism after drug and hypoxia removed” value in the data set on C2C12 mouse myoblasts [5] (5 mM, with or without ADA) was “regained metabolism activity”. Also, the “cellular metabolism under hypoxia” value with C2C12 mouse myoblasts [5] (5 mM, with or without ADA, MTS) is recorded as “kept in hypometabolic steady state without being affected by ADA”. In addition, the “metabolic activity per cell vs adenosine treated cells” value with C2C12 mouse myoblasts [5] (hypoxia, in the presence and absence of ADA) is on record as “significantly lower metabolic activity per cell”.
